Assays:
[1] = system: Spleen; assay: Biodistribution in Sprague-Dawley rat spleen at 24 hrs by gamma counting analysis; format: ADME, organism-based; details: in vivo
[2] = Ratio of drug level in heart to liver in Sprague-Dawley rat measured at 2 hrs; details: in vivo
[3] = system: Blood; assay: Biodistribution in Sprague-Dawley rat blood at 24 hrs by gamma counting analysis; format: ADME, organism-based; details: in vivo
[4] = system: Blood; assay: Biodistribution in Sprague-Dawley rat blood at 2 hrs by gamma counting analysis; format: ADME, organism-based; details: in vivo
[5] = system: Kidney; assay: Biodistribution in Sprague-Dawley rat kidney at 24 hrs by gamma counting analysis; format: ADME, organism-based; details: in vivo
[6] = Ratio of drug level in heart to lung in Sprague-Dawley rat measured at 2 hrs; details: in vivo
[7] = system: Brain; assay: Biodistribution in Sprague-Dawley rat brain at 2 hrs by gamma counting analysis; format: ADME, organism-based; details: in vivo
[8] = system: Heart; assay: Biodistribution in Sprague-Dawley rat heart at 24 hrs by gamma counting analysis; format: ADME, organism-based; details: in vivo
[9] = system: Heart; assay: Biodistribution in Sprague-Dawley rat heart at 2 hrs by gamma counting analysis; format: ADME, organism-based; details: in vivo
[10] = system: Lung; assay: Biodistribution in Sprague-Dawley rat lung at 24 hrs by gamma counting analysis; format: ADME, organism-based; details: in vivo
[11] = system: Brain; assay: Biodistribution in Sprague-Dawley rat brain at 24 hrs by gamma counting analysis; format: ADME, organism-based; details: in vivo
[12] = system: Liver; assay: Biodistribution in Sprague-Dawley rat liver at 24 hrs by gamma counting analysis; format: ADME, organism-based; details: in vivo
[13] = system: Muscle tissue; assay: Biodistribution in Sprague-Dawley rat muscle at 24 hrs by gamma counting analysis; format: ADME, organism-based; details: in vivo
[14] = system: Thyroid gland; assay: Biodistribution in Sprague-Dawley rat thyroid assessed per organ at 24 hrs by gamma counting analysis; format: ADME, organism-based; details: in vivo
[15] = system: Liver; assay: Biodistribution in Sprague-Dawley rat liver at 2 hrs by gamma counting analysis; format: ADME, organism-based; details: in vivo
[16] = Ratio of drug level in heart to blood in Sprague-Dawley rat measured at 2 hrs; format: ADME
[17] = system: Lung; assay: Biodistribution in Sprague-Dawley rat lung at 2 hrs by gamma counting analysis; format: ADME, organism-based; details: in vivo
[18] = system: Thyroid gland; assay: Biodistribution in Sprague-Dawley rat thyroid assessed per organ at 2 hrs by gamma counting analysis; format: ADME, organism-based; details: in vivo

## COc1cc2c(cc1OC)[C@@H]1C(=O)c3ccc4c(c3O[C@@H]1CO2)C[C@H](/C(C)=C\[125I])O4
[1]
  Drug uptake: Active
[2]
  Ratio: 2.57
[3]
  Drug uptake: 0.06 % ID/g
[4]
  Drug uptake: 0.14 %Idose/kg
[5]
  Drug uptake: Active
[6]
  Ratio: 9.32
[7]
  Drug uptake: 0.34 %Idose/kg
[8]
  Drug uptake: Active
[9]
  Drug uptake: 2.96 %Idose/kg
[10]
  Drug uptake: Active
[11]
  Drug uptake: Active
[12]
  Drug uptake: Active
[13]
  Drug uptake: Active
[14]
  Drug uptake: 3.78 %ID
[15]
  Drug uptake: 1.17 %Idose/kg
[16]
  Kp at 2 h: 22.4
[17]
  Drug uptake: 0.33 %Idose/kg
[18]
  Drug uptake: 0.34 %ID

From ChEMBL document CHEMBL2390945, “Synthesis and characterization of 123I-CMICE-013: a potential SPECT myocardial perfusion imaging agent” (Bioorg Med Chem, 2013)
